Values of other authors in patent US20230414692A1, “ETHANOLIC EXTRACT OF SEEDS OF SOLANUM MELONGENA, METHOD FOR OBTAINING IT, PHARMACEUTICAL COMPOSITION CONTAINING IT AND USE THEREOF AS AN ANTITUMOUR AGENT” (UNIVERSIDAD DE GRANADA, priority 2020, published 2023).

Key:
[1] = tested on: NIE.115 neuroblastoma cell line; details: Cohen et al., 1996
[2] = tested on: 143B.TK osteosarcoma cell line; details: Cohen et al., 1996

C/C=C(/C)C(=O)O[C@H]1C[C@@H](OC(C)=O)[C@@]2(C)CO[C@H]3[C@H]4O[C@@H]5C[C@@H](c6ccoc6)C(C)=C5[C@@]4(C)[C@H](CC(=O)OC)[C@]1(C)[C@@H]32 [Salannin]
IC50 [1]: 133 ± 6 µM
IC50 [2]: 89 ± 12 µM
